What follows are molecules tested against Fibroblast growth factor receptor 2 (Homo sapiens, UniProt P21802) (assay: FGFR2 Biochemical Caliper Assay).
Description: Compounds of the present invention were also tested in a FGFR2 Biochemical Caliper Assay. Compounds were prepared in 10 mM DMSO solution and serially diluted into 11 concentrations by 3-fold dilution. […] 5 uL of ATP solution (100 uM) was added to start the reaction and the plate was incubated for 90 minutes, then 70 uL of stopping buffer (0.5M EDTA) was added to terminate the reaction. Each well was analyzed using EZ reader.

Sequence of Fibroblast growth factor receptor 2 (P21802 whole entry): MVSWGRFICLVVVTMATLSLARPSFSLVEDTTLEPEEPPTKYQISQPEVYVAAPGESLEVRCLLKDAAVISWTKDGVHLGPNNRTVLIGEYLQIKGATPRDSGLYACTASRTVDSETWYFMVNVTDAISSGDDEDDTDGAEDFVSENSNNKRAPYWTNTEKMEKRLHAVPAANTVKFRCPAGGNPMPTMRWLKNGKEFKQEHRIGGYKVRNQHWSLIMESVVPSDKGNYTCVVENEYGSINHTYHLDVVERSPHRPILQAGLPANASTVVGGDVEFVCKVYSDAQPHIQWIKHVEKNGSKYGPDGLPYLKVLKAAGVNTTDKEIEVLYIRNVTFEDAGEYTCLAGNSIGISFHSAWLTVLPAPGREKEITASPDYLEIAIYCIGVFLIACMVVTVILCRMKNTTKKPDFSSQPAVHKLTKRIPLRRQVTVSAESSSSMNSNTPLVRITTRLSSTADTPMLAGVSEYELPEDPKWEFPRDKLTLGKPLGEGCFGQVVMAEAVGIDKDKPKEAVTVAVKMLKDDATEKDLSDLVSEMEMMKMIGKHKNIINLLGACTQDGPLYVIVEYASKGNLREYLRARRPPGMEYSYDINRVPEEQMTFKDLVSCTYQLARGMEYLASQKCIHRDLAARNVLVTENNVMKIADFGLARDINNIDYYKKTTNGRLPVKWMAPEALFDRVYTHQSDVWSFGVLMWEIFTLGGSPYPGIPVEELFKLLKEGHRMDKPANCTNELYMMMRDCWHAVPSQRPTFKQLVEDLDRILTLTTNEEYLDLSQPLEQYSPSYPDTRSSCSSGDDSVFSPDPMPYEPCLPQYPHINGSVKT

Question: With `CC#CC(=O)Nc1ccc(-c2c(-c3ccc(Oc4cccc(C)n4)c(OC)c3)c3c(N)ncnc3n2C)cc1` as the molecule, how does the IC50 read?
Answer: < 0.1 µM

Question: `C=CC(=O)Nc1ccc(-c2c(-c3ccc(Oc4ccccc4)c(OC)c3)c3c(N)ncnc3n2C)cc1` [US11780845, Example 12] was tested. Which IC50 did it give?
Answer: < 0.1 µM

Question: How did the IC50 turn out when `CC#CC(=O)N(C)c1ccc(-c2c(-c3ccc(Oc4cccc(C)n4)c(OC)c3)c3c(N)ncnc3n2C)cc1` [US11780845, Example 26] was run?
Answer: < 0.1 µM

Question: For `C=CC(=O)Nc1ccc(-c2c(-c3ccc(Oc4cccc(C)c4)c(OC)c3)c3c(N)ncnc3n2C)cc1` [US11780845, Example 27], which IC50 is on record?
Answer: < 0.1 µM

Reference: BindingDB's records for patent US11780845 (Relay Therapeutics, 2023)
